Laboratory results as given in patent US6437153B1, “Process for preparing 3-(1-hydroxyphenyl-1-alkoximinomethyl)dioxazines” (Bayer Aktiengesellschaft, priority 1996, dated 2002).
Where two headings read alike, the source gives them in different places.

Assay: logP determined by HPLC
Assay type: physicochemical
[1] = preparation examples, where two values are given they are the stereoisomers of the product mixture
[2] = preparation examples, where two values are given they are the stereoisomers of the product mixture, read-out: HPLC: logP

Row | SMILES | HPLC: logP [1] | chromatographic logP [2] | chromatographic logP (E isomer, Example 2 product, read-out: HPLC: logP (E isomer)) | chromatographic logP (HPLC, preparation examples, where two values are given they are the stereoisomers of the product mixture, read-out: HPLC: logP)
1 | CON=C1C(=NO)Oc2ccccc21 [Compound (III-1), benzofuran-2,3-dione 3-(O-methyl-oxime) 2-oxime] | 1.72 | 1.56 |  | 
2 | CO/N=C(/C1=NOCCO1)c1ccccc1O [Compound (I-1), E-(5,6-dihydro-[1,4,2]dioxazin-3-yl)-(2-hydroxy-phenyl)-methanone O-methyl-oxime] |  |  | 1.24 | 1.22
3 | CON=C1COc2ccc(C)cc21 [(VI-2), 5-Methylbenzofuran-3-one O-methyl-oxime] |  | 2.88 |  | 
4 | CON=C1C(=NOCCO)Oc2ccccc21 [Compound (II-1), benzofuran-2,3-dione 2-[O-(2-hydroxy-ethyl)-oxime]3-(O-methyl-oxime)] | 1.79 | 1.65 |  | 
5 | CON=C(C[N+](=O)[O-])c1ccccc1O [Compound (V-1), 1-(2-hydroxyphenyl)-2-nitro-ethanone O-methyl-oxime] |  | 1.87 |  | 
